Where two headings read alike, the source gives them in different places.
Target: GST tagged IRAK-4 (Homo sapiens (Human), UniProt Q9NWZ3)
Test: IRAK-4 Kinase Assay (IMAP fluorescence polarization)
Format: biochemical
Protocol: The kinase activity of IRAK-4 is determined by its ability to catalyze the phosphorylation of a fluorescent polypeptide substrate. The extent of phosphorylation is measured using the IMAP technology (Molecular Devices) where the phosphorylated fluorescent substrate binds to the large M(III)-based nanoparticles which reduces the rotational speed of the substrate and thus increases its fluorescent polarization (FP).
20 μl reaction mixture contains 10 mM TriHCl, pH 7.2, 0.5 nM GST tagged IRAK-4 (SignalChem), 100 nM fluorescent peptide substrate (RP7030, Molecular Devices), 100 μM ATP, 1 mM DTT, 1 mM MgCl2, and 0.01% Tween 20. The reaction is initiated by the addition of ATP. After incubation for 30 minutes at 25° C., 60 μl of Progressive IMAP Reagent (Molecular Devices) is added to stop the reaction. Change in RP7030's FP is determined by a FP reader (Analyst HT, LH, BioSystems).

[1] = 100 μM ATP, 30 minutes at 25° C., μM
[2] = 100 μM ATP, 30 minutes at 25° C.

GST tagged IRAK-4, sequence (Q9NWZ3 whole entry): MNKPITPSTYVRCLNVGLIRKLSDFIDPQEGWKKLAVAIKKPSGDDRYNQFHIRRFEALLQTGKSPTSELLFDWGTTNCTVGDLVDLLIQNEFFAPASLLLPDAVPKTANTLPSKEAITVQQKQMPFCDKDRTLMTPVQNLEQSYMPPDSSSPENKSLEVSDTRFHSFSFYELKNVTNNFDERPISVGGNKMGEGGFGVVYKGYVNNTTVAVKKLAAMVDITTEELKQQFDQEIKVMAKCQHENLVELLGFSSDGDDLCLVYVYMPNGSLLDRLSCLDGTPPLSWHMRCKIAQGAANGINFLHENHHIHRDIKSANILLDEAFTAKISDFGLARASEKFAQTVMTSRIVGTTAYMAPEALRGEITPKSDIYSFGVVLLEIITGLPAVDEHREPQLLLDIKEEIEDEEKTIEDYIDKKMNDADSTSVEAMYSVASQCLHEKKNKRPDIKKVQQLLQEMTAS

Row | Compound | IC50 [1] [µM] | IC50 [2] [µM] | further results
1 | Cc1ccc(-n2nc(C3CCN(S(=O)(=O)c4ccc(F)cc4F)CC3)cc2NC(=O)c2cnn3cccnc23)cc1 [Example 370, N-[3-{1-[(2,4-difluorophenyl)sulfonyl]piperidin-4-yl}-1-(4-methylphenyl)-1H-pyrazol-5-yl]pyrazolo[1,5-a]pyrimidine-3-carboxamide] | < 1 | – | –
2 | Cc1ccc(-n2nc(C3CCN(S(=O)(=O)CCc4ccccc4)CC3)cc2NC(=O)c2cnn3cccnc23)cc1 [Example 395, N-[1-(4-methylphenyl)-3-{1-[(2-phenylethyl)sulfonyl]piperidin-4-yl}-1H-pyrazol-5-yl]pyrazolo[1,5-a]pyrimidine-3-carboxamide] | < 1 | – | –
3 | O=C(Nc1cc(C2CCN(C3CCC3)CC2)nn1-c1ccc(Cl)cc1F)c1cnn2cccnc12 [Example 51, N-(1-(4-chloro-2-fluorophenyl)-3-(1-cyclobutylpiperidin-4-yl)-1H-pyrazol-5-yl)pyrazolo[1,5-a]pyrimidine-3-carboxamide] | – | < 0.1 | –
4 | Cc1ccc(-n2nc(C3CCN(C4CCN(C)CC4)CC3)cc2NC(=O)c2cnn3cccnc23)cc1 [Example 205] | > 1 | – | –
5 | Cc1ccc(-n2nc(C3CNC3)cc2NC(=O)c2cnn3cccnc23)cc1 [Example 82, N-(3-(azetidin-3-yl)-1-(p-tolyl)-1H-pyrazol-5-yl)pyrazolo[1,5-a]pyrimidine-3-carboxamide] | > 1 | – | –
6 | Cc1ccc(-n2nc(C3CN(Cc4cocn4)C3)cc2NC(=O)c2cnn3cccnc23)cc1 [Example 318, N-{1-(4-methylphenyl)-3-[1-(1,3-oxazol-4-ylmethyl)azetidin-3-yl]-1H-pyrazol-5-yl}pyrazolo[1,5-a]pyrimidine-3-carboxamide] | < 1 | – | –
7 | N-(3-(4-(aminomethyl)cyclohexyl)-1-(p-tolyl)-1H-pyrazol-5-yl)pyrazolo[1,5-a]pyrimidine-3-carboxamide [Example 184] | – | – | IC50: < 0.1 µM
8 | COC(=O)N1CCC(c2cc(NC(=O)c3cnn4cccnc34)n(-c3ccc(OC)cc3)n2)CC1 [Example 32, methyl 4-(1-(4-methoxyphenyl)-5-(pyrazolo[1,5-a]pyrimidine-3-carboxamido)-1H-pyrazol-3-yl)piperidine-1-carboxylate] | < 1 | – | –
9 | Cc1ccc(-n2nc(C3CCN(C4CCC4)CC3)cc2NC(=O)c2cnn3cccnc23)cc1 [Example 38, N-(3-(1-cyclobutylpiperidin-4-yl)-1-(p-tolyl)-1H-pyrazol-5-yl)pyrazolo[1,5-a]pyrimidine-3-carboxamide] | – | < 0.1 | –
10 | Cc1ccc(-n2nc(C3CCN(Cc4ccn[nH]4)CC3)cc2NC(=O)c2cnn3cccnc23)cc1 [Example 230, N-{1-(4-methylphenyl)-3-[1-(1H-pyrazol-5-ylmethyl)piperidin-4-yl]-1H-pyrazol-5-yl}pyrazolo[1,5-a]pyrimidine-3-carboxamide] | – | < 0.1 | –
11 | O=C(Nc1cc(C2CCNCC2)nn1-c1ccc(C2CC2)cc1F)c1cnn2cccnc12 [Example 72, N-(1-(4-cyclopropyl-2-fluorophenyl)-3-(piperidin-4-yl)-1H-pyrazol-5-yl)pyrazolo[1,5-a]pyrimidine-3-carboxamide] | – | < 0.1 | –
12 | CCC(=O)N1CC(N2CCC(c3cc(NC(=O)c4cnn5cccnc45)n(-c4ccc(C)cc4)n3)CC2)C1 [Example 249, N-{1-(4-methylphenyl)-3-[1-(1-propanoylazetidin-3-yl)piperidin-4-yl]-1H-pyrazol-5-yl}pyrazolo[1,5-a]pyrimidine-3-carboxamide] | < 1 | – | –
13 | CCNC(=O)N1CC(N2CCC(c3cc(NC(=O)c4cnn5cccnc45)n(-c4ccc(C)cc4)n3)CC2)C1 [Example 237, N-[3-{1-[1-(ethylcarbamoyl)azetidin-3-yl]piperidin-4-yl}-1-(4-methylphenyl)-1H-pyrazol-5-yl]pyrazolo[1,5-a]pyrimidine-3-carboxamide] | < 1 | – | –
14 | COc1ccc(-c2cc(NC(=O)c3cnn4cccnc34)n(-c3ccc(C)cc3)n2)cn1 [Example 124, N-(3-(6-methoxypyridin-3-yl)-1-(p-tolyl)-1H-pyrazol-5-yl)pyrazolo[1,5-a]pyrimidine-3-carboxamide] | < 1 | – | –
15 | Cc1ccc(-n2nc(C3CCCN(S(=O)(=O)C4CC4)C3)cc2NC(=O)c2cnn3cccnc23)cc1 (centres unmarked) [Example 44, N-(3-(1-(cyclopropylsulfonyl)piperidin-3-yl)-1-(p-tolyl)-1H-pyrazol-5-yl)pyrazolo[1,5-a]pyrimidine-3-carboxamide] | < 1 | – | –
16 | Cc1ccc(-n2nc(-c3ccc(CN4CCN(C)CC4)cc3)cc2NC(=O)c2cnn3cccnc23)cc1 [Example 144] | – | < 0.1 | –
17 | Cc1ccc(-n2nc(-c3ccc(N)cc3)cc2NC(=O)c2cnn3cccnc23)cc1 [Example 102, N-(3-(4-aminophenyl)-1-(p-tolyl)-1H-pyrazol-5-yl)pyrazolo[1,5-a]pyrimidine-3-carboxamide] | < 1 | – | –
18 | Cc1ccc(-n2nc(-c3ccc(S(=O)(=O)N4CCC4)cc3)cc2NC(=O)c2cnn3cccnc23)cc1 [Example 344, N-{3-[4-(azetidin-1-ylsulfonyl)phenyl]-1-(4-methylphenyl)-1H-pyrazol-5-yl}pyrazolo[1,5-a]pyrimidine-3-carboxamide] | – | < 0.1 | –

More lines, main results first:

Row | IC50 [1] [µM] | IC50 [2] [µM] | Compound | further results
19 | < 1 | – | Cc1ccc(-n2nc(C3COCCN3)cc2NC(=O)c2cnn3cccnc23)nc1 (centres unmarked) [Example 166, N-(1-(5-methylpyridin-2-yl)-3-(morpholin-3-yl)-1H-pyrazol-5-yl)pyrazolo[1,5-a]pyrimidine-3-carboxamide] | –
20 | – | < 0.1 | CS(=O)(=O)N1CCC(c2cc(NC(=O)c3cnn4cccnc34)n(-c3ccc(C4CC4)cn3)n2)CC1 [Example 149, N-(1-(5-cyclopropylpyridin-2-yl)-3-(1-(methylsulfonyl)piperidin-4-yl)-1H-pyrazol-5-yl)pyrazolo[1,5-a]pyrimidine-3-carboxamide] | –
21 | – | < 0.1 | Cc1ccc(-n2nc(C3CCN(C4CCC(C(F)(F)F)CC4)CC3)cc2NC(=O)c2cnn3cccnc23)nc1 (centres unmarked) [Example 271, N-[1-(5-methylpyridin-2-yl)-3-{1-[4-(trifluoromethyl)cyclohexyl]piperidin-4-yl}-1H-pyrazol-5-yl]pyrazolo[1,5-a]pyrimidine-3-carboxamide] | –
22 | – | < 0.1 | C[C@@H](N)c1ccc(-n2nc(C3CCN(S(C)(=O)=O)CC3)cc2NC(=O)c2cnn3cccnc23)nc1 [Example 163, (R)—N-(1-(5-(1-aminoethyl)pyridin-2-yl)-3-(1-(methylsulfonyl)piperidin-4-yl)-1H-pyrazol-5-yl)pyrazolo[1,5-a]pyrimidine-3-carboxamide] | –
23 | – | < 0.1 | O=C(Nc1cc(C2CCNCC2)nn1-c1ccc(C2CC2)cn1)c1cnn2cccnc12 [Example 146, N-(1-(5-cyclopropylpyridin-2-yl)-3-(piperidin-4-yl)-1H-pyrazol-5-yl)pyrazolo[1,5-a]pyrimidine-3-carboxamide] | –
24 | < 1 | – | CS(=O)(=O)N1CCC(c2cc(NC(=O)c3cnn4cccnc34)n(-c3ccc(F)cc3F)n2)CC1 [Example 28] | –
25 | – | < 0.1 | CS(=O)(=O)N1CCC(c2cc(NC(=O)c3cnn4cccnc34)n(-c3ccc(C4CC4)cc3F)n2)CC1 [Example 73, N-(1-(4-cyclopropyl-2-fluorophenyl)-3-(1-(methylsulfonyl)piperidin-4-yl)-1H-pyrazol-5-yl)pyrazolo[1,5-a]pyrimidine-3-carboxamide] | –
26 | < 1 | – | Cc1ccc(-n2nc(C3CCN(S(=O)(=O)c4cn(C)c(C)n4)CC3)cc2NC(=O)c2cnn3cccnc23)cc1 [Example 386, N-[3-{1-[(1,2-dimethyl-1H-imidazol-4-yl)sulfonyl]piperidin-4-yl}-1-(4-methylphenyl)-1H-pyrazol-5-yl]pyrazolo[1,5-a]pyrimidine-3-carboxamide] | –
27 | – | < 0.1 | Cc1ccc(-n2nc(N3CCN(C4CCCC4)CC3)cc2NC(=O)c2cnn3cccnc23)nc1 [Example 323, N-[3-(4-cyclopentylpiperazin-1-yl)-1-(5-methylpyridin-2-yl)-1H-pyrazol-5-yl]pyrazolo[1,5-a]pyrimidine-3-carboxamide] | –
28 | < 1 | – | Cc1cnc(-n2nc(C3CCN(S(=O)(=O)C4CC4)CC3)cc2NC(=O)c2cnn3cccnc23)nc1 [Example 171, N-(3-(1-(cyclopropylsulfonyl)piperidin-4-yl)-1-(5-methylpyrimidin-2-yl)-1H-pyrazol-5-yl)pyrazolo[1,5-a]pyrimidine-3-carboxamide] | –
29 | – | < 0.1 | Cc1ccc(-n2nc(C3CCNCC3)cc2NC(=O)c2cnn3cccnc23)nc1 [Example 152, N-(1-(5-methylpyridin-2-yl)-3-(piperidin-4-yl)-1H-pyrazol-5-yl)pyrazolo[1,5-a]pyrimidine-3-carboxamide] | –
30 | > 1 | – | O=C(Nc1cc(C2CCN(S(=O)(=O)C3CC3)CC2)nn1-c1ccc(OC(F)(F)F)cc1)c1cnn2cccnc12 [Example 27, N-(3-(1-(cyclopropylsulfonyl)piperidin-4-yl)-1-(4-(trifluoromethoxy)phenyl)-1H-pyrazol-5-yl)pyrazolo[1,5-a]pyrimidine-3-carboxamide] | –
31 | – | < 0.1 | Cc1ccc(-n2nc(C3CCN(S(C)(=O)=O)CC3)cc2NC(=O)c2cnn3cccnc23)nc1 [Example 153, N-(1-(5-methylpyridin-2-yl)-3-(1-(methylsulfonyl)piperidin-4-yl)-1H-pyrazol-5-yl)pyrazolo[1,5-a]pyrimidine-3-carboxamide] | –
32 | – | < 0.1 | Cc1ccc(-n2nc(C3CCN(C4CCN(C)CC4)CC3)cc2NC(=O)c2cnn3cccnc23)nc1 [Example 275, N-[3-(1′-methyl-1,4′-bipiperidin-4-yl)-1-(5-methylpyridin-2-yl)-1H-pyrazol-5-yl]pyrazolo[1,5-a]pyrimidine-3-carboxamide] | –

— patent US9169260B2 (MERCK SHARP & DOHME CORP., priority 2011, dated 2015)
